Reference: patent US9994551B2, “Pyridazine derivatives as RORc modulators” (Genentech, Inc., priority 2015, dated 2018)

These compounds were tested against T1, RORc ligand binding domain (Homo sapiens, UniProt P51449) (assay: In vitro RORc ligand binding assay (25-[3H]hydroxycholesterol displacement, filter binding)).
T1 construct: host or cells: E. coli
T1 sequence (P51449 269-508 limits assumed): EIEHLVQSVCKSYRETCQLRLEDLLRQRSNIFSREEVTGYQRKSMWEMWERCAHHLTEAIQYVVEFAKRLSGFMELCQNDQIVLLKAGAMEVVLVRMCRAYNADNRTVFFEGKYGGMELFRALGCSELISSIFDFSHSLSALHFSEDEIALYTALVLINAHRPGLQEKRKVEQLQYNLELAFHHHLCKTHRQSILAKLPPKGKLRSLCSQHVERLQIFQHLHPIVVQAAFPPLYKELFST
An IC50 of 72.2 nM was found for `CNC(=O)c1nccnc1O[C@@]12CC[C@@H](c3cc(-c4c(F)cccc4F)nnc31)C2(C)C` [Compound 15, 3-(((5S,8R)-3-(2,6-difluorophenyl)-9,9-dimethyl-5,6,7,8-tetrahydro-5,8-methanocinnolin-8-yl)oxy)-N-methylpyrazine-2-carboxamide] in this work. An IC50 of 67.4 nM was found for `CC[C@@H](C[C@@]12CC[C@@H](c3cc(-c4c(F)cccc4F)nnc31)C2(C)C)C(N)=O` [Compound 5, (S)-2-(((5R,8R)-3-(2,6-difluorophenyl)-9,9-dimethyl-5,6,7,8-tetrahydro-5,8-methanocinnolin-8-yl)methyl)butanamide] in this work. An IC50 of 74.8 nM was found for `CC1(C)[C@H]2CC[C@]1(OC1(CC(N)=O)CC1)c1nnc(-c3c(F)cccc3F)cc12` [Compound 46, 2-(1-(((5S,8R)-3-(2,6-difluorophenyl)-9,9-dimethyl-5,6,7,8-tetrahydro-5,8-methanocinnolin-8-yl)oxy)cyclopropyl)acetamide] in this work. An IC50 of 94.8 nM was found for `CC[C@@H](O[C@@]12CC[C@@H](c3cc(-c4c(F)cccc4F)nnc31)C2(C)C)C(=O)Nc1nnc(C)o1` [Compound 55, (R)-2-(((5S,8R)-3-(2,6-difluorophenyl)-9,9-dimethyl-5,6,7,8-tetrahydro-5,8-methanocinnolin-8-yl)oxy)-N-(5-methyl-1,3,4-oxadiazol-2-yl)butanamide] in this work. An IC50 of 60 nM was found for `CC1(C)[C@H]2CC[C@]1([C@@H]1CN(c3ncn[nH]3)CCO1)c1nnc(-c3c(F)cccc3F)cc12` [Compound 155, 2-[5-(2,6-difluorophenyl)-11,11-dimethyl-3,4-diazatricyclo[6.2.1.02,7]undeca-2,4,6-trien-1-yl]-4-(1H-1,2,4-triazol-5-yl)morpholine] in this work. An IC50 of 9.5 nM was found for `CC(CO)NC(=O)N1CCO[C@H]([C@@]23CC[C@@H](c4cc(-c5c(F)cccc5F)nnc42)C3(C)C)C1` (stereo in doubt) [Compound 141, 2-[5-(2,6-difluorophenyl)-11,11-dimethyl-3,4-diazatricyclo[6.2.1.02,7]undeca-2,4,6-trien-1-yl]-N-(2-hydroxy-1-methyl-ethyl)morpholine-4-carboxamide] in this work. An IC50 of 49.5 nM was found for `CC[C@@H](O[C@@]12CC[C@@H](c3cc(-c4c(F)cccc4F)nnc31)C2(C)C)C(=O)NCC(C)(C)O` [Compound 52, (R)-2-(((5S,8R)-3-(2,6-difluorophenyl)-9,9-dimethyl-5,6,7,8-tetrahydro-5,8-methanocinnolin-8-yl)oxy)-N-(2-hydroxy-2-methylpropyl)butanamide] in this work. An IC50 of 76.3 nM was found for `CC1(C)[C@H]2CC[C@]1([C@H]1CN(C(=O)c3cnco3)CCO1)c1nnc(-c3c(F)cccc3F)cc12` [Compound 94, ((S)-2-((5R,8R)-3-(2,6-difluorophenyl)-9,9-dimethyl-5,6,7,8-tetrahydro-5,8-methanocinnolin-8-yl)morpholino)(oxazol-5-yl)methanone] in this work. An IC50 of 18 nM was found for `CC1(C)[C@H]2CC[C@]1([C@H]1CCCN(c3ccc(Cl)nn3)C1)c1nnc(-c3c(F)cccc3F)cc12` [Compound 170, 1-[1-(6-chloropyridazin-3-yl)-3-piperidyl]-5-(2,6-difluorophenyl)-11,11-dimethyl-3,4-diazatricyclo[6.2.1.02,7]undeca-2,4,6-triene] in this work. An IC50 of 83 nM was found for `Cc1n[nH]c(C(=O)N2CCC[C@H]([C@@]34CC[C@@H](c5cc(-c6c(F)cccc6F)nnc53)C4(C)C)C2)n1` [Compound 129, [3-[5-(2,6-difluorophenyl)-11,11-dimethyl-3,4-diazatricyclo[6.2.1.02,7]undeca-2,4,6-trien-1-yl]-1-piperidyl]-(3-methyl-1H-1,2,4-triazol-5-yl)methanone] in this work. An IC50 of 44.5 nM was found for `CC[C@H](O[C@@]12CC[C@@H](c3cc(-c4c(F)cccc4F)nnc31)C2(C)C)C(=O)NCCO` [Compound 23, (S)-2-(((5S,8R)-3-(2,6-difluorophenyl)-9,9-dimethyl-5,6,7,8-tetrahydro-5,8-methanocinnolin-8-yl)oxy)-N-(2-hydroxyethyl)butanamide] in this work. An IC50 of 91.8 nM was found for `CC1(C)[C@H]2CC[C@]1(c1cccc3nccn13)c1nnc(-c3c(F)cccc3F)cc12` [Compound 107, (5R,8S)-3-(2,6-difluorophenyl)-8-(imidazo[1,2-a]pyridin-5-yl)-9,9-dimethyl-5,6,7,8-tetrahydro-5,8-methanocinnoline] in this work. An IC50 of 8.8 nM was found for `CC[C@@H](O[C@@]12CC[C@@H](c3cc(-c4c(F)cccc4F)nnc31)C2(C)C)C(N)=O` [Compound 31, (R)-2-(((5S,8R)-3-(2,6-difluorophenyl)-9,9-dimethyl-5,6,7,8-tetrahydro-5,8-methanocinnolin-8-yl)oxy)butanamide] in this work. An IC50 of 367 nM was found for `CC1(C)[C@H]2CC[C@]1([C@H]1CNCCO1)c1nnc(-c3c(F)cccc3F)cc12` [Compound 70, (S)-2-((5R,8R)-3-(2,6-difluorophenyl)-9,9-dimethyl-5,6,7,8-tetrahydro-5,8-methanocinnolin-8-yl)morpholine] in this work. An IC50 of 33 nM was found for `CC1(C)[C@H]2CC[C@]1([C@H]1CCCN(C(=O)c3ccno3)C1)c1nnc(-c3c(F)cccc3F)cc12` (stereo in doubt) [Compound 166, [3-[5-(2,6-difluorophenyl)-11,11-dimethyl-3,4-diazatricyclo[6.2.1.02,7]undeca-2,4,6-trien-1-yl]-1-piperidyl]-isoxazol-5-yl-methanone] in this work. An IC50 of 7.4 nM was found for `CC1(C)[C@H]2CC[C@]1([C@H]1CCCN(C(=O)NCCO)C1)c1nnc(-c3c(F)cccc3F)cc12` (stereo in doubt) [Compound 152, 3-[5-(2,6-difluorophenyl)-11,11-dimethyl-3,4-diazatricyclo[6.2.1.02,7]undeca-2,4,6-trien-1-yl]-N-(2-hydroxyethyl)piperidine-1-carboxamide] in this work. An IC50 of 185 nM was found for `CC1(C)[C@H]2CC[C@]1(Oc1cncnc1)c1nnc(-c3c(F)cccc3F)cc12` [Compound 28, (5S,8R)-3-(2,6-difluorophenyl)-9,9-dimethyl-8-(pyrimidin-5-yloxy)-5,6,7,8-tetrahydro-5,8-methanocinnoline] in this work. An IC50 of 3.1 nM was found for `CC(C)(C)OC(=O)N1CCNC[C@H]1[C@@]12CC[C@@H](c3cc(-c4c(F)cccc4F)nnc31)C2(C)C` [Compound 115, tert-butyl 2-[5-(2,6-difluorophenyl)-11,11-dimethyl-3,4-diazatricyclo[6.2.1.02,7]undeca-2,4,6-trien-1-yl]piperazine-1-carboxylate] in this work. An IC50 of 458 nM was found for `CC1(C)[C@H]2CC[C@]1([C@@H]1CNCCO1)c1nnc(-c3c(F)cccc3F)cc12` [Compound 66, (R)-2-((5R,8R)-3-(2,6-difluorophenyl)-9,9-dimethyl-5,6,7,8-tetrahydro-5,8-methanocinnolin-8-yl)morpholine] in this work. An IC50 of 34 nM was found for `CC1(C)[C@H]2CC[C@]1([C@H]1CN(c3ncn[nH]3)CCO1)c1nnc(-c3c(F)cccc3F)cc12` [Compound 144, 2-[5-(2,6-difluorophenyl)-11,11-dimethyl-3,4-diazatricyclo[6.2.1.02,7]undeca-2,4,6-trien-1-yl]-4-(1H-1,2,4-triazol-5-yl)morpholine] in this work. An IC50 of 116 nM was found for `CC[C@@H](O[C@@]12CC[C@@H](c3cc(-c4c(F)cccc4F)nnc31)C2(C)C)C(=O)NC(CO)CO` [Compound 53, (R)-2-(((5S,8R)-3-(2,6-difluorophenyl)-9,9-dimethyl-5,6,7,8-tetrahydro-5,8-methanocinnolin-8-yl)oxy)-N-(1,3-dihydroxypropan-2-yl)butanamide] in this work. An IC50 of 473 nM was found for `CN(C)C(=O)N1CCO[C@H]([C@@]23CC[C@@H](c4cc(-c5c(F)cccc5F)nnc42)C3(C)C)C1` [Compound 86, (R)-2-((5R,8R)-3-(2,6-difluorophenyl)-9,9-dimethyl-5,6,7,8-tetrahydro-5,8-methanocinnolin-8-yl)-N,N-dimethylmorpholine-4-carboxamide] in this work. An IC50 of 234 nM was found for `CC1(C)[C@H]2CC[C@]1([C@@H]1CN(C(=O)CO)CCO1)c1nnc(-c3c(F)cccc3F)cc12` [Compound 75, 1-((R)-2-((5R,8R)-3-(2,6-difluorophenyl)-9,9-dimethyl-5,6,7,8-tetrahydro-5,8-methanocinnolin-8-yl)morpholino)-2-hydroxyethanone] in this work. An IC50 of 175 nM was found for `CC1(C)[C@H]2CC[C@]1(c1cncc3nccn13)c1nnc(-c3c(F)cccc3F)cc12` [Compound 109, (5R,8S)-3-(2,6-difluorophenyl)-8-(imidazo[1,2-a]pyrazin-5-yl)-9,9-dimethyl-5,6,7,8-tetrahydro-5,8-methanocinnoline] in this work. An IC50 of 19 nM was found for `Cc1n[nH]c(N2CCO[C@H]([C@@]34CC[C@@H](c5cc(-c6c(F)cccc6F)nnc53)C4(C)C)C2)n1` [Compound 142, 2-[5-(2,6-difluorophenyl)-11,11-dimethyl-3,4-diazatricyclo[6.2.1.02,7]undeca-2,4,6-trien-1-yl]-4-(3-methyl-1H-1,2,4-triazol-5-yl)morpholine] in this work. An IC50 of 2.9 nM was found for `CN1CCN(C(N)=O)C[C@H]1[C@@]12CC[C@@H](c3cc(-c4c(F)cccc4F)nnc31)C2(C)C` [Compound 179, 3-[5-(2,6-difluorophenyl)-11,11-dimethyl-3,4-diazatricyclo[6.2.1.02,7]undeca-2,4,6-trien-1-yl]-4-methyl-piperazine-1-carboxamide] in this work. An IC50 of 148 nM was found for `CC[C@@H](O[C@@]12CC[C@@H](c3cc(-c4c(F)cccc4F)nnc31)C2(C)C)C(=O)N1CCCOCC1` [Compound 101, (R)-2-(((5S,8R)-3-(2,6-difluorophenyl)-9,9-dimethyl-5,6,7,8-tetrahydro-5,8-methanocinnolin-8-yl)oxy)-1-(1,4-oxazepan-4-yl)butan-1-one] in this work. An IC50 of 51 nM was found for `CC[C@H](O[C@@]12CC[C@@H](c3cc(-c4c(F)cccc4F)nnc31)C2(C)C)c1nnc(C)o1` [Compound 21, 2-((S)-1-(((5S,8R)-3-(2,6-difluorophenyl)-9,9-dimethyl-5,6,7,8-tetrahydro-5,8-methanocinnolin-8-yl)oxy)propyl)-5-methyl-1,3,4-oxadiazole] in this work.
